Earlier results, collected in patent US20040247633A1, “Novel dermatological composition” (EBERSYTES, LLC, priority 2003, published 2004).

Conditions: metal chelate

Structure (SMILES): CC(O)C(=O)[O-].CC(O)C(=O)[O-].[Cu+2] (stereo not shown) [Copper lacate]
- Affinity Constant: 10^10-10^12
